In patent publication US20070197957A1, “Implantable sensors, implantable pumps and anti-scarring drug combinations” (priority 2005, published 2007):

Tests used:
[1] = system: C. glabrata; experiment: antifungal activity against C. glabrata; assay type: cell-based
[2] = system: E. coli UB1005 C498; experiment: MIC by microtitre broth dilution; assay type: cell-based; conditions: Mueller Hinton broth, 37° C., 24 h, aerobic
Description: (§1) MIC assays were conducted essentially as described by Amsterdam, D. 1996, “Susceptibility testing of antimicrobials in liquid media”, p. 52-111, in Loman, V., ed. Antibiotics in laboratory medicine, 4th ed. Williams and Wilkins, Baltimore, Md.

[3] = system: K. pneumoniae ATCC13883 C238; experiment: MIC by microtitre broth dilution; assay type: cell-based; conditions: Mueller Hinton broth, 37° C., 24 h, aerobic
Description: as §1

[4] = system: P. aeruginosa PAE/K799 H187; experiment: MIC by microtitre broth dilution; assay type: cell-based; conditions: Mueller Hinton broth, 37° C., 24 h, aerobic
Description: as §1

[5] = system: S. epidermidis C621; experiment: MIC by microtitre broth dilution; assay type: cell-based; conditions: Mueller Hinton broth, 37° C., 24 h, aerobic
Description: as §1

[6] = system: S. aureus ATCC25923 C622; experiment: MIC by microtitre broth dilution; assay type: cell-based; conditions: Mueller Hinton broth, 37° C., 24 h, aerobic
Description: as §1

[7] = system: S. pyogenes C721; experiment: MIC by microtitre broth dilution; assay type: cell-based; conditions: Todd Hewitt broth, 37° C., 24 h, aerobic
Description: as §1

[8] = potentiation of immunosuppressive agents
[9] = cited from earlier work; for solubility in alcohol / ethanol: alcohol or ethanol
[10] = system: phosphatases of regenerating liver (PRL); conditions: cited from earlier work
[11] = target: protein tyrosine phosphatase 1B (PTP1B) (Homo sapiens, UniProt P18031); conditions: cited from earlier work
[12] = system: endo-exonuclease; conditions: cited from earlier work

Chain of protein tyrosine phosphatase 1B (PTP1B) (P18031 whole entry): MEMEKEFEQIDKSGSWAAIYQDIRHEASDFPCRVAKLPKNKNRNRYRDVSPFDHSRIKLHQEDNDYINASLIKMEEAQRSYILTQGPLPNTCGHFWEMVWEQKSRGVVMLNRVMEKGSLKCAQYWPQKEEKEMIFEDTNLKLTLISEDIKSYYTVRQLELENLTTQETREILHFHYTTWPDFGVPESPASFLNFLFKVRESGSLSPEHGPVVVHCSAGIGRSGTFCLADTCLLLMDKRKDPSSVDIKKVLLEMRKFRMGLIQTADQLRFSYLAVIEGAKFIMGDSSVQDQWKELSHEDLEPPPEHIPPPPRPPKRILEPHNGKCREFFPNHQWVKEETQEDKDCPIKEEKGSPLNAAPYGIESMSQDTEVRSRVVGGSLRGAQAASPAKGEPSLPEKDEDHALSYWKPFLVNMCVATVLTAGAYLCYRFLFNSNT

Row | SMILES | Minimum inhibitory concentration, E. coli UB1005 C498 wt Gram− [2] | Minimum inhibitory concentration, K. pneumoniae ATCC13883 C238 wt Gram− [3] | Minimum inhibitory concentration, P. aeruginosa PAE/K799 H187 Wt Gram− [4] | Minimum inhibitory concentration, S. epidermidis C621 wt Gram+ [5] | Minimum inhibitory concentration, S. aureus ATCC25923 C622 wt Gram+ [6] | Minimum inhibitory concentration, S. pyogenes C721 wt Gram+ [7] | also measured
1 | CCC(C)n1ncn(-c2ccc(N3CCN(c4ccc(OC[C@H]5CO[C@](Cn6cncn6)(c6ccc(Cl)cc6Cl)O5)cc4)CC3)cc2)c1=O (mixture of isomers) [itraconazole] |  |  |  |  |  |  | enhancement of antifungal activity by a manganese compound [1]: enhances
2 | Sc1ncc2[nH]cnc2n1 [2-mercaptopurine] | N | N | N | N | N | N | 
3 | O=c1[nH]cc(F)c(=O)[nH]1 [5-fluorouracil] | 10^−6 Molar | 10^−6 Molar | 10^−5 Molar | 10^−7 Molar | 10^−7 Molar | 10^−4 Molar | 
4 | Sc1ncnc2nc[nH]c12 [6-mercaptopurine] | N | N | N | N | N | N | 
5 | Nc1ccn([C@@H]2O[C@H](CO)[C@@H](O)[C@@H]2O)c(=O)n1 [Cytarabine, cytarabine] | N | N | N | N | N | N | 
6 | CCN(CC)C(C)CN1c2ccccc2Sc2ccccc21 (centres unmarked) [Ethopropazine, ethopropazine] |  |  |  |  |  |  | effect on potency of an immunosuppressive agent (e.g. cyclosporine) [8]: increases the potency
7 | CN(C)C(=O)C(CCN1CCC(O)(c2ccc(Cl)cc2)CC1)(c1ccccc1)c1ccccc1 [Loperamide] |  |  |  |  |  |  | effect on potency of an immunosuppressive agent (e.g. cyclosporine) [8]: increase the potency
8 | Nc1ccc(/N=N/c2ccccc2)c(N)n1 [Phenazopyridine, phenazopyridine] |  |  |  |  |  |  | solubility in alcohol / ethanol [9]: slightly soluble in water and alcohol; solubility in water ([9]; water): slightly soluble in water and alcohol
9 | NC(=O)c1ncn([C@@H]2O[C@H](CO)[C@@H](O)[C@H]2O)n1 [Ribavirin, ribavirin] |  |  |  |  |  |  | solubility in alcohol / ethanol [9]: only slightly soluble
10 | CC[C@@]1(O)C(=O)OCc2c1cc1n(c2=O)Cc2cc3ccccc3nc2-1 [camptothecin] | N | N | N | 10^−4 Molar | N | N | 
11 | CC[C@H](C)C[C@H](C)CCCCCCCCC(=O)N[C@H]1C[C@@H](O)[C@@H](NCCN)NC(=O)[C@@H]2[C@@H](O)CCN2C(=O)[C@H]([C@H](O)CCN)NC(=O)[C@H]([C@H](O)[C@@H](O)c2ccc(O)cc2)NC(=O)[C@@H]2C[C@@H](O)CN2C(=O)[C@H]([C@@H](C)O)NC1=O [caspofungin] |  |  |  |  |  |  | enhancement of antifungal activity by a manganese compound [1]: enhances
12 | N.N.[Cl][Pt][Cl] [cisplatin] | N | N | 10^−4 Molar | N | N | N | 
13 | COc1cccc2c1C(=O)c1c(O)c3c(c(O)c1C2=O)C[C@@](O)(C(=O)CO)C[C@@H]3O[C@H]1C[C@H](N)[C@H](O)[C@H](C)O1 [doxorubicin] | 10^−4 Molar | 10^−6 Molar | 10^−5 Molar | 10^−6 Molar | 10^−5 Molar | 10^−7 Molar | 
14 | COc1cc([C@@H]2c3cc4c(cc3[C@@H](O[C@@H]3O[C@@H]5CO[C@@H](C)O[C@H]5[C@H](O)[C@H]3O)[C@H]3COC(=O)[C@H]23)OCO4)cc(OC)c1O [etoposide] | N | 10^−5 Molar | N | 10^−6 Molar | 10^−5 Molar | 10^−5 Molar | 
15 | OC(Cn1cncn1)(Cn1cncn1)c1ccc(F)cc1F [fluconazole] |  |  |  |  |  |  | enhancement of antifungal activity by a manganese compound [1]: enhances
16 | NC(=O)NO [hydroxyurea] | N | N | 10^−4 Molar | N | N | 10^−4 Molar | 
17 | CNCCCC12CCC(c3ccccc31)c1ccccc12 [maprotiline] |  |  |  |  |  |  | effect on potency of an immunosuppressive agent (e.g. cyclosporine) [8]: increases the potency
18 | CN(Cc1cnc2nc(N)nc(N)c2n1)c1ccc(C(=O)N[C@@H](CCC(=O)O)C(=O)O)cc1 [methotrexate] | N | 10^−6 Molar | N | N | 10^−5 Molar | 10^−6 Molar | 
19 | O=C1c2c(O)ccc(O)c2C(=O)c2c(NCCNCCO)ccc(NCCNCCO)c21 [mitoxantrone] | 10^−5 Molar | 10^−6 Molar | 10^−5 Molar | 10^−5 Molar | 10^−5 Molar | 10^−6 Molar | 
20 | N=C(N)c1ccc(OCCCCCOc2ccc(C(=N)N)cc2)cc1 [pentamidine] |  |  |  |  |  |  | inhibition of oncogenic phosphatases of regenerating liver (PRL) [10]: potent inhibitor; inhibition of PTP1B [11]: effective inhibitor; inhibition of endo-exonuclease activity [12]: inhibit
21 | CN(C/C=C/C#CC(C)(C)C)Cc1cccc2ccccc12.Cl [terbinafine] |  |  |  |  |  |  | enhancement of antifungal activity by a manganese compound [1]: enhances
22 | Oc1cc(Cl)ccc1Oc1ccc(Cl)cc1Cl [triclosan] |  |  |  |  |  |  | effect on potency of an immunosuppressive agent (e.g. cyclosporine) [8]: increases the potency
23 | Nc1ncnc2c1ccn2[C@@H]1O[C@H](CO)[C@@H](O)[C@H]1O [tubercidin] | N | N | N | N | N | N | 
